Reference: article PMC9231284, “Hesperidin Bioavailability Is Increased by the Presence of 2S-Diastereoisomer and Micronization—A Randomized, Crossover and Double-Blind Clinical Trial” (Nutrients, 2022)

Columns and labels:
[1] = set-up: method as in PMID 18058792; conditions: rats, intravenous administration of racemic hesperetin; cited from earlier work
[2] = First phase: relative urinary hesperidin excretion in 24 h urine after 500 mL orange juice with 345 mg hesperidin; type: in vivo, human; conditions: for Relative urinary hesperidin excretion, low excretors: N=3, mean ± SD
Experimental: The study consisted of two phases. In the first phase, 30 volunteers consumed 500 mL of orange juice (OJ) with 345 mg of hesperidin [9], and the levels of hesperidin excreted in urine were determined. The OJ used in the first phase of the study was the hesperidin OJ used in previous studies conducted by our group. The objective of this first phase of the study was to select volunteers with intermediate hesperidin metabolite levels excreted in urine to reduce the variability in the results in the second phase of the study.
For the first phase of the study—after at least 8 h of fasting—the participants’ urine was collected before the intake of 500 mL of OJ (basal urine) and after the intake of the OJ for 24 h, accumulated in a single volume urine (Figure 1). Urine samples were homogenized and centrifuged at 1900 g for 10 min at 4 °C, and the supernatant was collected and subdivided into aliquots which were stored at −80 °C until analysis.
Relative urinary hesperidin excretion values (% of hesperidin ingested) obtained in the first phase of the study were used to select the participants for the second phase of the study. It was calculated by the ratio between the sum of hesperidin metabolites and the amount of hesperidin consumed by the participants (345 mg). With these values, 18 volunteers with intermediate relative urinary hesperidin excretion values were selected for the second phase.
To obtain the main and secondary outcomes, the urinary levels of hesperidin metabolites and catabolites at baseline—before consuming the hesperidin supplement—and up to 24 h after consuming the hesperidin supplement in four urine fractions (0–3 h; 3–6 h; 6–8 h; 8–24 h) were determined. In addition, the serum levels of hesperidin metabolites and catabolites at baseline and at 2 h, 3 h, 4 h, 5 h, 6 h, 7 h, 8 h and 24 h after consuming the hesperidin supplement were quantified. To obtain the relative urinary hesperidin excretion in the first phase of the study, the urinary levels of hesperidin metabolites before consuming the OJ and in the 24 h urine after consuming the hesperidin supplement were determined.
Hesperetin and related metabolites were determined in urine and serum samples by liquid chromatography coupled to triple quadrupole mass spectrometry (LC-QqQ) using a UHPLC 1290 Infinity II Series coupled to a QqQ/MS 6490 Series (Agilent Technologies, Palo Alto, CA, USA) and an ACQUITY UPLC BEH C18 (100 × 2.1 mm; 1.8 µm) column (Waters, Milford, MA, USA). Mobile phase A was 100% water with 0.5% acetic acid and 10 mM ammonium acetate, and mobile phase B was 100% methanol. The column temperature was set at 45 °C and the injection volume was 5 µL. The triple quadrupole operated in negative electrospray ionization mode (ESI-). The source conditions were set at 25 psi for the nebulizer gas, 240 °C for the gas temperature, 17 L/min for the gas flow, 250 °C for the sheath gas temperature, 12 L/min for the sheath gas flow, 3500 V for the capillary voltage and 0 V for the nozzle voltage. The standards used for quantification purposes were: Hesperetin and Hesperidin (Extrasynthese, Genay, France); Hesperetin 7-O-beta-D-glucuronide, Hesperetin 3-O-beta-D-glucuronide and Hesperetin 7,3′-di-O-beta-D-glucuronide (Toronto Research Chemicals; North York, ON, Canada); Hesperitin 7-O-sulfate (Santa Cruz Biotechnology, Dallas, TX, USA). Hesperitin-d3 and Diosmetin 7-O-β-D-Glucuronide-d3 (Toronto Research Chemicals; North York, ON, Canada) were used as internal standards. […]

[3] = set-up: method as in PMID 28747329, PMID 26861391, PMID 30669635; conditions: humans, oral; cited from earlier work
[4] = cited from earlier work

SMILES | AUC of R-diastereoisomer compared to S-diastereoisomer [1] [fold] | Relative urinary hesperidin excretion, low excretors [2] [%] | Relative urinary hesperidin excretion, low excretors ([2]; listed as Hesperidin) [%] | Relative urinary hesperidin excretion, high excretors ([2]; N=4, mean ± SD) [%] | Relative urinary hesperidin excretion, intermediate excretors ([2]; N=21, mean ± SD) [%] | Mean relative urinary hesperidin excretion determined as hesperetin or hesperetin conjugates in urine ([2]; all participants N=28, mean ± SD) [%] | Share of ingested hesperidin that reaches the large intestine [3] [%] | Solubility [4] | Water solubility [4]
COc1ccc([C@H]2CC(=O)c3c(O)cc(O)cc3O2)cc1O [R-diastereoisomer, hesperetin] | 3.2 | – | – | – | – | – | – | – | –
COc1ccc([C@@H]2CC(=O)c3c(O)cc(O[C@@H]4O[C@H](CO[C@@H]5O[C@@H](C)[C@H](O)[C@@H](O)[C@H]5O)[C@@H](O)[C@H](O)[C@H]4O)cc3O2)cc1O [hesperidin, hesperetin-7-O-rutinoside] | – | 0.74 ± 0.11 | 0.743 ± 0.112 | 6.06 ± 1.46 | 2.31 ± 1.01 | 2.67 ± 1.79 | 70 | low | poor
